{"source": "ChEMBL document CHEMBL6115007", "about": "“Synthesis and in vitro and in vivo evaluation of novel bivalent quinolines as antitumor agents via targeting autophagy in cervical cancer” (Eur J Med Chem, 2025)", "key": {"Ca-Ski [1]": {"system": "Ca-Ski", "experiment": "Induction of apoptosis in human Ca Ski cells assessed as late apoptotic cells at 0.5 uM preincubated with Z-VAD-FMK for 1 hrs followed by compound addition and measured after 24 hrs by Annexin V-FITC/PI staining based flow cytometric analysis (reference value: 5.30 %)", "format": "functional"}, "Ca-Ski [2]": {"system": "Ca-Ski", "experiment": "Inhibition of colony formation in ATG7 deficient human Ca Ski cells at 0.1 to 0.4 uM incubated for 24 hrs by crystal violet staining based analysis", "format": "functional, cell-based", "conditions": "dose 0.1-0.4 µM"}, "Ca-Ski [3]": {"system": "Ca-Ski", "experiment": "Effect on cleaved PARP expression level in Bax deficient human Ca Ski cells at 0.5 to 1 uM incubated for 24 hrs by Western blot analysis", "format": "functional, cell-based", "conditions": "dose 0.5-1 µM"}, "HeLa [4]": {"system": "HeLa", "experiment": "Induction of apoptosis in human HeLa cells assessed as viable cells at 0.6 uM incubated for 24 hrs by Annexin V-FITC/PI staining based flow cytometric analysis (reference value: 96.2 %)", "format": "functional", "conditions": "read-out: Activity"}, "Ca-Ski [5]": {"system": "Ca-Ski", "experiment": "Induction of apoptosis in human Ca Ski cells assessed as late apoptotic cells at 1 uM preincubated with Z-VAD-FMK for 1 hrs followed by compound addition and measured after 24 hrs by Annexin V-FITC/PI staining based flow cytometric analysis (reference value: 5.30 %)", "format": "functional"}, "Ca-Ski [6]": {"system": "Ca-Ski", "experiment": "Induction of apoptosis in human Ca Ski cells assessed as early apoptotic cells at 1 uM incubated for 24 hrs by Annexin V-FITC/PI staining based flow cytometric analysis (reference value: 4.76 %)", "format": "functional"}, "[7]": {"experiment": "Toxicity in female BALB/c mouse xenografted with human HeLa cells assessed as effect on body weight at 4 to 8 mg/kg administered every four days and measured after 26 days", "format": "organism-based", "conditions": "in vivo, 624 h, dose 4-8 mg/kg, time 26 day"}, "HeLa [8]": {"system": "HeLa", "experiment": "Inhibition of cell migration in human HeLa cells at 0.6 to 1.2 uM measured after 48 hrs by cell scratch assay", "format": "functional, cell-based", "conditions": "dose 0.6-1.2 µM"}, "MCF7": {"system": "MCF7", "experiment": "Antiproliferative activity against human MCF7 cells assessed as reduction in cell optical density incubated for 48 hrs by MTT assay", "format": "functional, cell-based", "conditions": "MCF7, 48 h"}, "HeLa [9]": {"system": "HeLa", "experiment": "Induction of autophagy in human HeLa cells transfected with mRFP-GFP-LC3 plasmid assessed as stable RFP fluorescence at 0.4 to 0.8 uM incubated for 24 hrs by DAPI staining based fluorescence confocal microscopic analysis", "format": "functional, cell-based", "conditions": "dose 0.4-0.8 µM"}, "Ca-Ski [10]": {"system": "Ca-Ski", "experiment": "Induction of autophagy in human Ca Ski cells assessed as increase in p62 level at 0.25 to 1 microM incubated for 24 hrs by Western blot analysis", "format": "functional, cell-based", "conditions": "dose 0.25-1 µM"}, "HeLa [11]": {"system": "HeLa", "experiment": "Effect on TRFC protein expression level in human HeLa cells at 0.6 uM incubated for 24 hrs by Western blot analysis", "format": "functional, cell-based"}, "HeLa [12]": {"system": "HeLa", "experiment": "Antiproliferative activity against ATG5 deficient human HeLa cells assessed as inhibition of cell viability incubated for 24 hrs by CCK8 assay", "format": "functional, cell-based"}, "HeLa [13]": {"system": "HeLa", "experiment": "Induction of autophagy in human HeLa cells assessed as increase in LC3-II accumulation at 0.6 uM incubated for 3 to 48 hrs by Western blot analysis", "format": "functional, cell-based", "conditions": "time 3-48 hrs"}, "Ca-Ski [14]": {"system": "Ca-Ski", "experiment": "Induction of apoptosis in human Ca Ski cells assessed as viable cells at 1 uM preincubated with Z-VAD-FMK for 1 hrs followed by compound addition and measured after 24 hrs by Annexin V-FITC/PI staining based flow cytometric analysis (reference value: 90.2 %)", "format": "functional", "conditions": "read-out: Activity"}, "HeLa [15]": {"system": "HeLa", "experiment": "Induction of autophagy in human HeLa cells transfected with mRFP-GFP-LC3 plasmid assessed as decrease in GFP fluorescence at 30 uM incubated for 24 hrs by DAPI staining based fluorescence confocal microscopic analysis", "format": "functional, cell-based"}, "Ca-Ski [16]": {"system": "Ca-Ski", "experiment": "Induction of apoptosis in human Ca Ski cells assessed as necrotic cells at 1 uM preincubated with Z-VAD-FMK for 1 hrs followed by compound addition and measured after 24 hrs by Annexin V-FITC/PI staining based flow cytometric analysis (reference value: 1.54 %)", "format": "functional"}, "Ca-Ski [17]": {"system": "Ca-Ski", "experiment": "Effect on PARP expression level in p53 deficient human Ca Ski cells at 0.5 to 1 uM incubated for 24 hrs by Western blot analysis", "format": "functional, cell-based", "conditions": "dose 0.5-1 µM"}, "[18]": {"experiment": "Toxicity in female BALB/c mouse xenografted with human HeLa cells assessed as effect on liver at 4 to 8 mg/kg administered every four days and measured after 26 days by H and E staining based analysis", "format": "organism-based", "conditions": "in vivo, 624 h, dose 4-8 mg/kg, time 26 day"}, "[19]": {"experiment": "Toxicity in female BALB/c mouse xenografted with human HeLa cells assessed as effect on ALT level at 4 to 8 mg/kg administered every four days and measured after 26 days", "format": "organism-based", "conditions": "in vivo, 624 h, dose 4-8 mg/kg, time 26 day"}, "HeLa [20]": {"system": "HeLa", "experiment": "Induction of apoptosis in human HeLa cells assessed as viable cells at 1.2 uM preincubated with Z-VAD-FMK for 1 hrs followed by compound addition and measured after 24 hrs by Annexin V-FITC/PI staining based flow cytometric analysis (reference value: 95.8 %)", "format": "functional", "conditions": "read-out: Activity"}, "HeLa [21]": {"system": "HeLa", "experiment": "Induction of apoptosis in human HeLa cells assessed as late apoptotic cells at 1.2 uM incubated for 24 hrs by Annexin V-FITC/PI staining based flow cytometric analysis (reference value: 0.94 %)", "format": "functional"}, "SiHa": {"system": "SiHa", "experiment": "Induction of morphological changes in human SiHa cells assessed as decrease in cell adherence to culture dish at 0.5 to 2 uM by microphotographic analysis", "format": "functional, cell-based", "conditions": "dose 0.5-2 µM"}, "HeLa [22]": {"system": "HeLa", "experiment": "Induction of autophagy in human HeLa cells assessed as increase in ATG7 protein level at 0.6 to 1.2 uM incubated for 24 hrs by Western blot analysis", "format": "functional, cell-based", "conditions": "dose 0.6-1.2 µM"}, "Ca-Ski [23]": {"system": "Ca-Ski", "experiment": "Induction of apoptosis in human Ca Ski cells assessed as late apoptotic cells at 1 uM incubated for 24 hrs by Annexin V-FITC/PI staining based flow cytometric analysis (reference value: 5.33 %)", "format": "functional"}, "HeLa [24]": {"system": "HeLa", "experiment": "Antitumor activity against human HeLa cells xenografted in female BALB/c mouse assessed as reduction in tumor growth at 4 to 8 mg/kg administered every four days and measured after 26 days", "format": "functional, organism-based", "conditions": "dose 4-8 mg/kg, time 26.0 day"}, "HeLa [25]": {"system": "HeLa", "experiment": "Induction of apoptosis in human HeLa cells assessed as late apoptotic cells at 1.2 uM preincubated with Z-VAD-FMK for 1 hrs followed by compound addition and measured after 24 hrs by Annexin V-FITC/PI staining based flow cytometric analysis (reference value: 1.02 %)", "format": "functional"}, "Ca-Ski [26]": {"system": "Ca-Ski", "experiment": "Effect on SLC7A11 protein expression level in human Ca Ski cells at 0.5 uM incubated for 24 hrs by Western blot analysis", "format": "functional, cell-based"}, "HeLa [27]": {"system": "HeLa", "experiment": "Induction of autophagolysosome formation in human HeLa cells transfected with mRFP-GFP-LC3 plasmid assessed as increase in ratio of mRFP to GFP puncta at 0.4 to 0.8 uM incubated for 24 hrs", "format": "functional, cell-based", "conditions": "dose 0.4-0.8 µM"}, "HeLa [28]": {"system": "HeLa", "experiment": "Induction of apoptosis in human HeLa cells assessed as late apoptotic cells at 0.6 uM preincubated with Z-VAD-FMK for 1 hrs followed by compound addition and measured after 24 hrs by Annexin V-FITC/PI staining based flow cytometric analysis (reference value: 1.02 %)", "format": "functional"}, "HeLa [29]": {"system": "HeLa", "experiment": "Effect on cleaved PARP expression level in Bax deficient human HeLa cells at 0.6 to 1.2 uM incubated for 24 hrs by Western blot analysis", "format": "functional, cell-based", "conditions": "dose 0.6-1.2 µM"}, "HeLa [30]": {"system": "HeLa", "experiment": "Induction of apoptosis in human HeLa cells assessed as necrotic cells at 0.6 uM preincubated with Z-VAD-FMK for 1 hrs followed by compound addition and measured after 24 hrs by Annexin V-FITC/PI staining based flow cytometric analysis (reference value: 2.16 %)", "format": "functional"}}, "note": "Active and inactive are the calls of the source. The rule behind the calls is not given here.", "data": [{"smiles": "COc1cccc(Nc2ccnc3cc(OCCCCCOc4ccc5c(Nc6cccc(OC)c6)ccnc5c4)ccc23)c1", "values": [{"measurement": "Activity", "setting": "Ca-Ski [1]", "result": 17.3, "unit": "%"}, {"measurement": "inhibition", "setting": "Ca-Ski [2]", "result": "Minimal_effect"}, {"measurement": "Activity", "setting": "Ca-Ski [3]", "result": "inactive"}, {"measurement": "viability at 0.6 µM", "setting": "HeLa [4]", "result": 94.3, "unit": "%"}, {"measurement": "Activity", "setting": "Ca-Ski [5]", "result": 6.59, "unit": "%"}, {"measurement": "Activity", "setting": "Ca-Ski [6]", "result": 7.2, "unit": "%"}, {"measurement": "Activity", "setting": "[7]", "result": "Non-toxic"}, {"measurement": "inhibition", "setting": "HeLa [8]", "result": "Active"}, {"measurement": "IC50", "setting": "MCF7", "result": 3080, "unit": "nM"}, {"measurement": "Activity", "setting": "HeLa [9]", "result": "Active"}, {"measurement": "Activity", "setting": "Ca-Ski [10]", "result": "Active"}, {"measurement": "Activity", "setting": "HeLa [11]", "result": "inactive"}, {"measurement": "IC50", "setting": "HeLa [12]", "result": 1630, "unit": "nM"}, {"measurement": "Activity", "setting": "HeLa [13]", "result": "Active"}, {"measurement": "viability at 1 µM", "setting": "Ca-Ski [14]", "result": 86.1, "unit": "%"}, {"measurement": "Activity", "setting": "HeLa [15]", "result": "Active"}, {"measurement": "Activity", "setting": "Ca-Ski [16]", "result": 1.7, "unit": "%"}, {"measurement": "Activity", "setting": "Ca-Ski [17]", "result": "inactive"}, {"measurement": "Activity", "setting": "[18]", "result": "Non-toxic"}, {"measurement": "Activity", "setting": "[19]", "result": "Non-toxic"}, {"measurement": "viability at 1.2 µM", "setting": "HeLa [20]", "result": 93.6, "unit": "%"}, {"measurement": "Activity", "setting": "HeLa [21]", "result": 4.11, "unit": "%"}, {"measurement": "Activity", "setting": "SiHa", "result": "Active"}, {"measurement": "Activity", "setting": "HeLa [22]", "result": "Active"}, {"measurement": "Activity", "setting": "Ca-Ski [23]", "result": 7.8, "unit": "%"}, {"measurement": "Activity", "setting": "HeLa [24]", "result": "Active"}, {"measurement": "Activity", "setting": "HeLa [25]", "result": 3.71, "unit": "%"}, {"measurement": "Activity", "setting": "Ca-Ski [26]", "result": "Moderate_effect"}, {"measurement": "Activity", "setting": "HeLa [27]", "result": "Active"}, {"measurement": "Activity", "setting": "HeLa [28]", "result": 2.8, "unit": "%"}, {"measurement": "Activity", "setting": "HeLa [29]", "result": "inactive"}, {"measurement": "Activity", "setting": "HeLa [30]", "result": 1.01, "unit": "%"}]}]}
